25 molecules from patent publication US11078197B2, “5-membered and bicyclic heterocyclic amides as inhibitors of rock” (BRISTOL-MYERS SQUIBB COMPANY, priority 2017, dated 2021) can be followed below.

As a reminder, the IC50 is the concentration that gives 50% inhibition. The low end stands for inhibition by little substance, the high end for a need for much substance.

The target in this test is ROCK2 (Homo sapiens (Human), UniProt O75116). In words: ROCK2 assay (peptide phosphorylation, LABCHIP 3000 Reader). It is filed as biochemical. Particulars: 5 μM ATP, 1.5 μM peptide substrate, dose-response. On the procedure: After incubation, the reaction was terminated by the addition of EDTA and the phosphorylated and non-phosphorylated peptides separated using a LABCHIP®3000 Reader (Caliper Life Sciences). […] Compounds were tested in dose-response format, and the inhibition of kinase activity was calculated at each concentration of compound. […] Representative Examples were tested in the ROCK2 assay described above and found having ROCK2 inhibitory activity.
ROCK2, sequence (O75116 whole entry, species assumed): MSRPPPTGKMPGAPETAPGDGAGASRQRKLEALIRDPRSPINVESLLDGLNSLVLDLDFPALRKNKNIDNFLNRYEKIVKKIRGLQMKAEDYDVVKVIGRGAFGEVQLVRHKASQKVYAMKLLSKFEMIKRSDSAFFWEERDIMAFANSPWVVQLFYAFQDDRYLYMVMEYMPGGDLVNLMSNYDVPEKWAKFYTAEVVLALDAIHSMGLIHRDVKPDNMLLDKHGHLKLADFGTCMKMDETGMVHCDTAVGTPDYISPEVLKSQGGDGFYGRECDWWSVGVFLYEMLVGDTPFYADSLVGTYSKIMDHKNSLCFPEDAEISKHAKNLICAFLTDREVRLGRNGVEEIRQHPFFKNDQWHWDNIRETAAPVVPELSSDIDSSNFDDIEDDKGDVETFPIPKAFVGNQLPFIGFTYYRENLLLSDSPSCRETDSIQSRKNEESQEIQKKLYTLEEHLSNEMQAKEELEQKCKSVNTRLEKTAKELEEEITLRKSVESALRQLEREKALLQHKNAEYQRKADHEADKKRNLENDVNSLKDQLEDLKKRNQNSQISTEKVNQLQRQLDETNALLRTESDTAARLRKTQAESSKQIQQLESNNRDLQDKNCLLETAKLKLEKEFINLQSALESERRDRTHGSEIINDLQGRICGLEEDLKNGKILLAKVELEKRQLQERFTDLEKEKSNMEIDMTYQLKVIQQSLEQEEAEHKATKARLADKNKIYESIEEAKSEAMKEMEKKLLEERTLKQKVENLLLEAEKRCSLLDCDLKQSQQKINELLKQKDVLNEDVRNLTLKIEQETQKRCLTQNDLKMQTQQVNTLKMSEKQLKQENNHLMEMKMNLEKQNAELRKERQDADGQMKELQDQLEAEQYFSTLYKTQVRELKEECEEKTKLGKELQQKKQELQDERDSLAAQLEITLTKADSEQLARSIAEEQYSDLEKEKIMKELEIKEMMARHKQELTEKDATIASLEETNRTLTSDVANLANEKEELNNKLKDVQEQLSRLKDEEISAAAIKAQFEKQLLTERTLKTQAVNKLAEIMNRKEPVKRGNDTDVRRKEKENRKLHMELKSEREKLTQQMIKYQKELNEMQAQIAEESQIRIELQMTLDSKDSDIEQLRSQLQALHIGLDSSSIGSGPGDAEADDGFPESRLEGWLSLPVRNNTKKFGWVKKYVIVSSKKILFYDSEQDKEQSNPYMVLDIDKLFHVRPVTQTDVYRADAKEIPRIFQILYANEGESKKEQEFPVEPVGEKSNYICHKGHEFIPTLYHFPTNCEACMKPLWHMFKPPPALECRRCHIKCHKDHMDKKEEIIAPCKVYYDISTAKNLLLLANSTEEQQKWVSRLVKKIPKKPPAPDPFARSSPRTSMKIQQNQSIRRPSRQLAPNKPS
`Cc1ccn2nc(O[C@H]3C[C@@]4(C[C@H](NC(=O)c5nn(C(F)F)c6cc(OCC(C)(C)O)ccc56)C4)C3)c(C(N)=O)c2c1` (stereo partly shown) [Example 132, 1-(difluroomethyl)-6-(2-hydroxy-2-methylpropoxy)-N-[(4s)-6-({3-carbamoyl-5-methylpyrazolo[1,5-a]pyridin-2-yl}oxy)spiro[3.3]heptan-2-yl]-1H-indazole-3-carboxamide]: the 50% inhibitory concentration (IC50) was found to be 223 nM.

In turn, `COc1nc(O[C@H]2C[C@@]3(C[C@H](NC(=O)c4cnn5cc(OCC(F)F)ccc45)C3)C2)c(C(N)=O)s1` (stereo partly shown) [Example 115, 2-methoxy-4-{[(4s)-6-[6-(2,2-difluoroethoxy)pyrazolo[1,5-a]pyridine-3-amido]spiro[3.3]heptan-2-yl]oxy}-1,3-thiazole-5-carboxamide] showed an IC50 of 31.2 nM.

For the molecule `COc1nc(O[C@H]2C[C@@]3(C[C@H](NC(=O)c4cnn5cc(OCC(O)(C(F)(F)F)C(F)(F)F)ccc45)C3)C2)c(C(N)=O)s1` (stereo partly shown) [Example 116, 2-methoxy-4-{[(4s)-6-{6-[3,3,3-trifluoro-2-hydroxy-2-(trifluoromethyl)propoxy]pyrazolo[1,5-a]pyridine-3-amido}spiro[3.3]heptan-2-yl]oxy}-1,3-thiazole-5-carboxamide], the IC50 came out at 71.6 nM.

For the molecule `Cc1c(C(=O)N[C@H]2C[C@]3(C2)C[C@H](Oc2nn(C(F)F)cc2C(N)=O)C3)cnn1-c1ccc(Cl)cc1` (stereo partly drawn) [Example 55, 1-(4-chlorophenyl)-5-methyl-N-[(aR)-6-{[4-carbamoyl-1-(difluoromethyl)-1H-pyrazol-3-yl]oxy}spiro[3.3]heptan-2-yl]-1H-pyrazole-4-carboxamide], the IC50 worked out at 78.3 nM.

As for `Cn1ncc2cc(C(N)=O)c(O[C@H]3C[C@@]4(C[C@H](NC(=O)c5cnn6c(C7CC7)c(OCC(C)(C)O)ccc56)C4)C3)nc21` (stereo partly shown) [Example 147, 7-cyclopropyl-6-(2-hydroxy-2-methylpropoxy)-N-[(4s)-6-({5-carbamoyl-1-methyl-1H-pyrazolo[3,4-b]pyridin-6-yl}oxy)spiro[3.3]heptan-2-yl]pyrazolo[1,5-a]pyridine-3-carboxamide], the IC50 is 2.9 nM.

The molecule `CC(C)(O)COc1ccc2c(C(=O)N[C@H]3C[C@]4(C3)C[C@H](Oc3nn(CCCN)cc3C(N)=O)C4)cnn2c1C1CC1` (stereo partly drawn) [Example 27, 1-(3-aminopropyl)-3-({(aR)-6-[7-cyclopropyl-6-(2-hydroxy-2-methylpropoxy)pyrazolo [1,5-a]pyridine-3-amido]spiro[3.3]heptan-2-yl}oxy)-1H-pyrazole-4-carboxamide] displayed an IC50 of 13.8 nM.

As for `CC(C)(O)COc1ccc2c(C(=O)N[C@H]3C[C@]4(C3)C[C@H](Oc3nn5cc(F)ccc5c3C(N)=O)C4)nn(C(F)F)c2c1` (stereo partly shown) [Example 128, 1-(difluoromethyl)-6-(2-hydroxy-2-methylpropoxy)-N-[(4s)-6-({3-carbamoyl-6-fluoropyrazolo[1,5-a]pyridin-2-yl}oxy)spiro[3.3]heptan-2-yl]-1H-indazole-3-carboxamide], the midpoint of inhibition, the IC50, lay at 83.2 nM.

Turning to `CC(C)(O)COc1ccc2c(C(=O)NC3CC4(C3)CC(Oc3nc5ncccc5cc3C(N)=O)C4)cnn2c1C1CC1` [Example 7, 2-(((aR)-6-(7-Cyclopropyl-6-(2-hydroxy-2-methylpropoxy)pyrazolo[1,5-a]pyridine-3-carboxamido)spiro[3.3]heptan-2-yl)oxy)-1,8-naphthyridine-3-carboxamide], the IC50 worked out at 4.8 nM.

For the molecule `CC(C)(O)COc1ccc2c(C(=O)N[C@H]3C[C@]4(C3)C[C@H](Oc3nn(CCN)cc3C(N)=O)C4)cnn2c1C1CC1` (stereo partly drawn) [Example 29, 1-(2-aminoethyl)-3-({(aR)-6-[7-cyclopropyl-6-(2-hydroxy-2-methylpropoxy)pyrazolo [1,5-a]pyridine-3-amido]spiro[3.3]heptan-2-yl}oxy)-1H-pyrazole-4-carboxamide], the IC50 is 254 nM.

In turn, `NC(=O)c1cc2sccc2nc1OC1CC2(CC(NC(=O)C3CCC(C(F)(F)F)CC3)C2)C1` (stereo not shown) [Example 9, 5-((6-(4-(Trifluoromethyl)cyclohexane-1-carboxamido)spiro[3.3]heptan-2-yl)oxy)thieno[3,2-b]pyridine-6-carboxamide] displayed an IC50 of 349 nM.

On to `Cc1nc(O[C@H]2C[C@@]3(C[C@H](NC(=O)c4cnn5cc(OCC(C)(C)O)ccc45)C3)C2)c(C(N)=O)s1` (stereo partly drawn) [Example 21, 4-({(aR)-6-[6-(2-hydroxy-2-methylpropoxy)pyrazolo [1,5-a]pyridine-3-amido]spiro[3.3]heptan-2-yl}oxy)-2-methyl-1,3-thiazole-5-carboxamide], for which it took 18.9 nM to reach half-maximal inhibition (IC50).

The molecule `CC(C)(O)COc1ccc2c(C(=O)N[C@H]3C[C@]4(C3)C[C@H](Oc3nn(-c5ccccc5)cc3C(N)=O)C4)cnn2c1C1CC1` (stereo partly drawn) [Example 15, 3-({(aR)-6-[7-cyclopropyl-6-(2-hydroxy-2-methylpropoxy)pyrazolo [1,5-a]pyridine-3-amido]spiro[3.3]heptan-2-yl}oxy)-1-phenyl-1H-pyrazole-4-carboxamide] had an IC50 of 12.5 nM.

For `Cn1cc(C(N)=O)c(O[C@H]2C[C@@]3(C[C@H](NC(=O)c4nn(C(F)F)c5cc(OCC(C)(C)O)ccc45)C3)C2)n1` (stereo partly drawn) [Example 36, N-{(aR)-6-[(4-carbamoyl-1-methyl-1H-pyrazol-3-yl)oxy]spiro[3.3]heptan-2-yl}-1-(difluoromethyl)-6-(2-hydroxy-2-methylpropoxy)-1H-indazole-3-carboxamide], the IC50 was determined as 22.4 nM.

Take `Cc1c(C(=O)N[C@H]2C[C@]3(C2)C[C@H](Oc2nn4ccccc4c2C(N)=O)C3)cnn1-c1ccc(Cl)cc1` (stereo partly shown) [Example 119, 1-(4-chlorophenyl)-5-methyl-N-[(4s)-6-({3-carbamoylpyrazolo[1,5-a]pyridin-2-yl}oxy)spiro[3.3]heptan-2-yl]-1H-pyrazole-4-carboxamide]: inhibition was half-maximal at 351 nM (IC50).

As to `COc1nc(O[C@H]2C[C@@]3(C[C@H](NC(=O)c4cnn5cc(OCC(F)(F)F)ccc45)C3)C2)c(C(N)=O)s1` (stereo partly shown) [Example 117, 2-methoxy-4-{[(4s)-6-[6-(2,2,2-trifluoroethoxy)pyrazolo[1,5-a]pyridine-3-amido]spiro[3.3]heptan-2-yl]oxy}-1,3-thiazole-5-carboxamide], the half-maximal inhibitory concentration (IC50) came to 58.7 nM.

Molecule `Cc1c(C(=O)N[C@H]2C[C@]3(C2)C[C@H](Oc2nn(-c4ccccc4)cc2C(N)=O)C3)cnn1-c1ccc(Cl)cc1` (stereo partly drawn) [Example 49, 1-phenyl-3-{[(aR)-6-[1-(4-chlorophenyl)-5-methyl-1H-pyrazole-4-amido]spiro[3.3]heptan-2-yl]oxy}-1H-pyrazole-4-carboxainide] displayed an IC50 of 450 nM.

`CC(CC1NC(=O)N([C@H]2C[C@@]3(C[C@H](Oc4nn5ccccc5c4C(N)=O)C3)C2)C1=O)C(F)(F)F` (stereo partly shown) [Example 140, 2-{[(4s)-6-[2,5-dioxo-4-(3,3,3-trifluoro-2-methylpropyl)imidazolidin-1-yl]spiro[3.3]heptan-2-yl]oxy}pyrazolo[1,5-a]pyridine-3-carboxamide]: half-maximal inhibition (IC50) was put at 62.1 nM.

Regarding `Cc1nc(NCC(C)(C)O)sc1C(=O)N[C@H]1C[C@]2(C1)C[C@H](Oc1nc3c(cc1C(N)=O)COCC3)C2` (stereo partly shown) [Example 144, 2-[(2-hydroxy-2-methylpropyl)amino]-4-methyl-N-[(4s)-6-({3-carbamoyl-5H,7H,8H-pyrano[4,3-b]pyridin-2-yl}oxy)spiro[3.3]heptan-2-yl]-1,3-thiazole-5-carboxamide], the IC50 amounted to 367 nM.

`Cn1ncc2cc(C(N)=O)c(O[C@H]3C[C@@]4(C[C@H](NC(=O)c5nn(CC(F)F)c6cc(OCC(C)(C)O)ccc56)C4)C3)nc21` (stereo partly shown) [Example 159, 1-(2,2-difluoroethyl)-6-(2-hydroxy-2-methylpropoxy)-N-[(4s)-6-({5-carbamoyl-1-methyl-1H-pyrazolo[3,4-b]pyridin-6-yl}oxy)spiro[3.3]heptan-2-yl]-1H-indazole-3-carboxamide] registered a half-inhibitory concentration (IC50) of 1.1 nM.

`Cn1cc(C(N)=O)c(O[C@H]2C[C@@]3(C[C@H](NC(=O)c4cnn5cc(N6CC7(COC7)C6)ccc45)C3)C2)n1` (stereo partly drawn) [Example 33, 1-methyl-3-{[(aR)-6-(6-{2-oxa-6-azaspiro[3.3]heptan-6-yl}pyrazolo[1,5-a]pyridine-3-amido)spiro[3.3]heptan-2-yl]oxy}-1H-pyrazole-4-carboxamide] came in with an IC50 of 347 nM.

In the case of `N#Cc1cccc(C(=O)N[C@H]2C[C@]3(C2)C[C@H](Oc2nc4ccsc4cc2C(N)=O)C3)c1` (stereo partly drawn) [Example 83, 5-{[(aR)-6-(3-cyanobenzamido)spiro[3.3]heptan-2-yl]oxy}thieno[3,2-b]pyridine-6-carboxamide], the IC50 came out at 9.7 nM.

Molecule `Cc1sc2cc(C(N)=O)c(O[C@H]3C[C@@]4(C[C@H](NC(=O)c5cccc(C#N)c5)C4)C3)nc2c1C` (stereo partly drawn) [Example 95, 2,3-dimethyl-5-{[(aR)-6-(3-cyanobenzamido)spiro[3.3]heptan-2-yl]oxy}thieno[3,2-b]pyridine-6-carboxamide] returned an IC50 of 79 nM.

The molecule `NC(=O)c1cn(C2CC2)nc1O[C@H]1C[C@@]2(C[C@H](NC(=O)c3nc(C(F)(F)F)n4cc(Br)ccc34)C2)C1` (stereo partly drawn) [Example 60, 1-cyclopropyl-3-{[(aR)-6-[6-bromo-3-(trifluoromethyl)imidazo[1,5-a]pyridine-1-amido]spiro[3.3]heptan-2-yl]oxy}-1H-pyrazole-4-carboxamide] came in with an IC50 of 35.5 nM.

Consider `CCC1NC(=O)N([C@H]2C[C@@]3(C[C@H](Oc4nc(C5CC5)sc4C(N)=O)C3)C2)C1=O` (stereo partly drawn) [Example 108, 2-cyclopropyl-4-{[(aR)-6-(4-ethyl-2,5-dioxoimidazolidin-1-yl)spiro[3.3]heptan-2-yl]oxy}-1,3-thiazole-5-carboxamide], for which the half-maximal inhibitory concentration (IC50) is 1870 nM.

Take `CC(C)(O)COc1ccc2c(C(=O)NC3CC4(C3)CC(Oc3nc5c(cc3C(N)=O)CCCN5)C4)cnn2c1C1CC1` [Example 8, 2-(((aR)-6-(7-Cyclopropyl-6-(2-hydroxy-2-methylpropoxy)pyrazolo[1,5-a]pyridine-3-carboxamido)spiro[3.3]heptan-2-yl)oxy)-5,6,7,8-tetrahydro-1,8-naphthyridine-3-carboxamide]: 5.4 nM corresponded to half-maximal inhibition (IC50).
